In article PMC4446618, “SAR of Sponge-Inspired Hemibastadin Congeners Inhibiting Blue Mussel PhenolOxidase” (Marine Drugs, 2015):
Read-outs that look alike come from different tables or passages of the source.

Tests used:
barnacle larvae = system: barnacle larvae; design: method as in PMID 17713818; settings: cited from earlier work
[1] = biological target: blue mussel phenoloxidase (PO); experiment: Blue mussel PO inhibition assay; type: biochemical, Mytilus edulis; settings: for IC50: purified enzyme, 25 °C, 10 mM L-DOPA, 50 mM phosphate buffer pH 6.8, 2 h incubation, triplicate; for enzyme inhibitory activity towards blue mussel PO (in words): compared to DBHB (1)
Procedure: PO activity was measured spectrophotometrically as described earlier. The purified enzyme was incubated at 25 °C with 10 mM L-DOPA in 50 mM phosphate buffer of pH 6.8. PO activity was determined by monitoring the increase of absorbance at 475 nm. One unit of enzyme activity was defined as the amount of enzyme that catalyzes the formation of 1 μmol dopachrome per minute under the described experimental conditions. Hemibastadin congeners were added to the assay at concentrations of up to 50 μg/mL. In addition, the biocide TBT (10 μg/mL) was used as a positive standard. Aliquots of pure enzyme were incubated for 2 h with hemibastadin analogues, then the enzyme activity was recorded with L-DOPA or catechol (10 mM) as substrates. All assays were run in triplicate. The results are presented as the concentration of compounds that reduces enzyme velocity by 50% (IC50 values). IC50 values were calculated using MINITAB (Version 14).

[2] = biological target: blue mussel phenoloxidase (PO); design: method as in PMID 21547349; settings: cited from earlier work; for IC50: data derived from a previous investigation, read-out: IC50, inhibition of blue mussel phenoloxidase (PO)

| IC50 [1] | SMILES | further results |
| --- | --- | --- |
| 0.81 µM | O=C(NCCc1cc(Br)c(O)c(Br)c1)/C(Cc1cc(Br)c(O)c(Br)c1)=N/O [Compound 1, 5,5′-dibromohemibastadin-1] | antifouling activity (in words) (barnacle larvae): strong antifouling activity |
|  | O=C(NCCc1ccc(O)cc1)/C(Cc1ccc(O)cc1)=N/O [Compound 2, Norbromohemibastadin-1] | IC50 [2]: 2.41 µM |
|  | NC(Cc1ccc(O)cc1)C(=O)NCCc1ccc(O)cc1 (stereo not shown) [Compound 3, Tyrosinyltyramine] | inhibition of blue mussel PO (in words) [2]: completely inactive; IC50 [2]: > 100 µM |
| 1.14 µM | O=C(NCCc1cc(I)c(O)c(I)c1)/C(Cc1cc(I)c(O)c(I)c1)=N/O [Compound 4, Tetraiodo-norbromohemibastadin-1] |  |
| 1.19 µM | O=C(NCCc1cc(Cl)c(O)c(Cl)c1)/C(Cc1cc(Cl)c(O)c(Cl)c1)=N/O [Compound 5, Tetrachloro-norbromohemibastadin-1] |  |
| 18.9 ± 0.77 µM | CO/N=C(\Cc1cc(Br)c(OC)c(Br)c1)C(=O)NCCc1cc(Br)c(OC)c(Br)c1 [Compound 6, Tri-O-methyl-5,5′-dibromohemibastadin-1] | reduction of the enzyme inhibitory activity compared to the parent compound 1 ([1]; relative to DBHB (1)): more than twenty-fold |
| 11.7 ± 0.49 µM | O=C(NC1CCCCC1)/C(Cc1cc(Br)c(O)c(Br)c1)=N/O [Compound 7, N-cyclohexyl-3-(3,5-dibromo-4-hydroxyphenyl)-2-(2-hydroxyimino)-propanamide] |  |
| 17.2 ± 0.76 µM | CC(C)CNC(=O)/C(Cc1cc(Br)c(O)c(Br)c1)=N/O [Compound 8, N-(2-methyl-propyl)-3-(3,5-dibromo-4-hydroxyphenyl)-2-(2-hydroxyimino)-propanamide] |  |
| 16.3 ± 0.83 µM | CCCCCCNC(=O)/C(Cc1cc(Br)c(O)c(Br)c1)=N/O [Compound 9, N-hexyl-3-(3,5-dibromo-4-hydroxyphenyl)-2-(2-hydroxyimino)-propanamide] |  |
| 22.7 ± 0.88 µM | O=C(NCCc1ccccc1)/C(Cc1cc(Br)c(O)c(Br)c1)=N/O [Compound 10, N-2-phenylethyl-3-(3,5-dibromo-4-hydroxyphenyl)-2-(2-hydroxyimino)-propanamide] | enzyme inhibitory activity towards blue mussel PO (in words) [1]: strong reduction of inhibitory activity |
| 33.2 ± 1.72 µM | O=C(NCCc1c[nH]cn1)/C(Cc1cc(Br)c(O)c(Br)c1)=N/O [Compound 11, N-[2-(4-imidazolyl)-ethyl]-3-(3,5-dibromo-4-hydroxyphenyl)-2-(2-hydroxyimino)-propanamide] | melting point: 130 °C |
| > 100 µM | O=C(NCCc1c[nH]c2ccccc12)/C(Cc1cc(Br)c(O)c(Br)c1)=N/O [Compound 12, N-[2-(3-indolyl)-ethyl]-3-(3,5-dibromo-4-hydroxyphenyl)-2-(2-hydroxyimino)-propanamide] | enzyme inhibitory activity towards blue mussel PO (in words) [1]: complete loss of activity |
|  | CC(=O)C(C)=NO [Compound 13, 2,3-butanedione monoxime, reference compound] | IC50 [2]: 8.7 µM |
